Test results: patent publication US5118791A, “Biologically active polypeptides based on transforming growth factor-β” (Genentech, Inc., priority 1991, dated 1992)
Where no end group is shown, it is not given here.

Experiments:
Format in all cases: cell-based
[1] = system: Mu-1-Lv (ATCC CCL 64) mink lung epithelial-like cell; test: Inhibition of proliferation of cultured mink lung cells (3H-thymidine incorporation); conditions: CCL-64 mink lung cells, 24 hours, FIG. 1
Description: The cell line Mu-1-Lv (ATCC CCL 64, Rockville, MD), a mink lung epithelial-like cell, was used to detect TGF-β activity. Mul-1-Lv cells maintained by weekly passage in vitro in CMEM consisting of Eagle's minimum essential medium supplemented with 0.1 mM nonessential amino acids, 2 mM L-glutamine, 1 MM sodium pyruvate (Gibco, Grand Island, NY), and 10% heat-inactivated fetal bovine serum (FBC; HyClone Laboratoris, Logan, UT) were placed into 96-well flat-bottom microtiter plates (10,000/well; Falcon 3075) at a final volume of 200 μl/well. The plates were incubated at 37° C.+5% CO2 for 24 hours. During the last 4 hours of culture, 1 μCi of {3H} thymidine (20 μl/well, 5.0 Ci/mmol; Amersham Corp.) was added. After labeling, 100 μl/well of 10 x Trypsin-EDTA was added per well and the plates were incubated for an additional 15 min. at 37° C. Cells were harvested onto glass filters and counted in a liquid scintillation counter (LS 6800, Beckman, Fullerton, CA). Results (pg/ml of TGF-β) were calculated based on percent inhibition of thymidine incorporation compared with a rHuTGF-β1 laboratory standard.

human lymphocytes [2] = test: Inhibition of human lymphocyte proliferation in response to PHA-P; conditions: PHA-P 1 μg/ml, three days, dose-dependent, FIG. 6
human lymphocytes [3] = test: Inhibition of human lymphocyte proliferation in response to PMA; conditions: PMA 40 ng/ml, three days, dose-dependent, FIG. 5
human lymphocytes [4] = test: Inhibition of human lymphocyte proliferation in response to tetanus toxoid; conditions: tetanus toxoid 2 LF units/ml, six days, dose-dependent, FIG. 4
Description: The medium employed was complete RPMI-1640, i.e., RPMI-1640 (Gibco) supplemented with 10% human pooled AB serum (Hazelton Biologics Inc., Lenexa, KS), 100 u/ml penicillin/100 μg/ml streptomycin, 2 mM L-glutamine (Gibco), 1 mM sodium pyruvate (Gibco), 1% MEM non-essential amino acids (Gibco, 100x), 25 mM HEPES (Gibco), and 1% Nutridoma (Boehringer Manheim).
Heparinized venous blood (10 u/ml; bovine lung, Upjohn) was mixed with an equal volume of isotonic saline. Approximately 30 ml of the diluted blood was layered over 15 ml of lymphocyte separation medium (LSM, Organon Technika) in […] conical polypropylene centrifuge tubes (Falcon Plastics). The tubes were centrifuged for 40 min. at 400× g at 22° C. […]
To each of sextuplicate wells of a 96-well flat-bottom microtiter plate (Falcon Plastics) was added 100 μl of the cell suspension. […] The filter discs were dried and suspended in 2 ml of liquid scintillation cocktail (Econofluor, New England Nuclear) in mini-scintillation vials and incorporated radioactivity was determined by liquid scintillation spectrophotometry. Data were expressed as mean counts per min. of the quadruplicate samples, where the cpm of the media control was substrated from the cpm of the stimulated sample.

Row | Substance | cpm incorporated (activity) as a function of the reciprocal of dilution [1] | inhibition of proliferation of human lymphocytes in response to PHA-P (human lymphocytes [2]) | inhibition of proliferation of human lymphocytes in response to PMA (human lymphocytes [3]) | inhibition of proliferation of human lymphocytes in response to tetanus toxoid (human lymphocytes [4])
1 | CVRQLYIDFRKDLGWK [free polypeptide] | comparable, i.e., low at the low dilution level and high at the high dilution levels | – | – | –
2 | TGF-β1: mature, full-length transforming growth factor-β1 | – | also exhibits this dose-dependent effect | also exhibits this dose-dependent effect | also exhibits this dose-dependent effect
